Values of other authors as cited in US7374920B2, “Ginkgo biloba levopimaradiene synthase” (priority 2001, dated 2008).

Assays:
insect larvae = settings: Schwarz, M., 1994; Matsumoto, et al., 1987; cited from earlier work
[1] = target: platelet-activating factor (PAF) receptor (Homo sapiens, UniProt P25105); settings: compared with the other ginkgolide diterpenes; cited from earlier work
Sequence of platelet-activating factor (PAF) receptor (P25105 whole entry): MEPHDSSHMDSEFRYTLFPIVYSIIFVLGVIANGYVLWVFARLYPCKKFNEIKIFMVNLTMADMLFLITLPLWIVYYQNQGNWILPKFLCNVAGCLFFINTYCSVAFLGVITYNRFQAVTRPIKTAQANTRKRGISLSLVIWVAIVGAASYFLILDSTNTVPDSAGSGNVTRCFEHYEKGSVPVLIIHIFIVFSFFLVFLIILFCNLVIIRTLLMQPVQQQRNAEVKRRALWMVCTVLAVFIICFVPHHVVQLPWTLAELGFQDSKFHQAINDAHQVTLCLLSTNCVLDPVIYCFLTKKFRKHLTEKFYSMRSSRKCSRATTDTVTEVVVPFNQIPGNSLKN

| Compound | antifeedant activity (insect larvae) | PAF antagonist activity [1] |
| --- | --- | --- |
| CC(C)(C)[C@]1(O)CC2OC(=O)CC23C(=O)OC2OC(=O)[C@H](O)C231 (some centres unmarked) [bilobalide] | significant antifeedant activities toward insect larvae | – |
| CC1C(=O)OC2C(O)C34C5CC(C(C)(C)C)C36C(OC(=O)C6O)OC4(C(=O)O5)C12O (centres unmarked) [ginkgolide B] | – | highest activity of the diterpenes |
